Structures can show the parent of a compound that is named as a salt.
Test system: P. aeruginosa 26
Assay: In vitro antibacterial activity, two-fold agar-plate dilution method (MIC)
Type: cell-based
Conditions: Pseudomonas aeruginosa, heart infusion agar, 10^8 viable cells per ml, 37° C. for 20 hours, read-out: MIC (minimal inhibitory concentration)
Procedure: Now in order to show the utility of the object compound [I], the test data on MIC (minimal inhibitory concentration) of representative compound [I] of this invention is shown in the following.
In vitro antibacterial activity was determined by the two-fold agar-plate dilution method as described below.
One loopful of an overnight culture of each test strain in Trypticase-soy broth (10^8 viable cells per ml) was streaked on heart infusion agar (HI-agar) containing graded concentrations of representative test compound, and the minimal inhibitory concentration (MIC) was expressed in terms of μg/ml after incubation at 37° C. for 20 hours.

Compound CCON=C(C(=O)NC1C(=O)N2C(C(=O)[O-])=C(C[n+]3ccc(N)n3CCO)CSC12)c1csc(N)n1 (stereo not drawn) [Example 2, Sulfuric acid salt of 7β-[2-(2-aminothiazol-4-yl)-2-ethoxyiminoacetamido]-3-[3-amino-2-(2-hydroxyethyl)-1-pyrazolio]methyl-3-cephem-4-carboxylate (syn isomer)] has an MIC of 1.56 µg/mL.

From patent US5187160A, “Cephem compound” (Fujisawa Pharmaceutical Co., Ltd., priority 1989, dated 1993)
